Reference: US20230227427A1, “IL-17A MODULATORS” (SANOFI, priority 2010, published 2023)
Where two headings read alike, the source gives them in different places.

Biological target: T1, human recombinant IL-17A (Homo sapiens, UniProt Q16552)
T1 construct: purchased R&D Systems 7955-IL/CF
T1 sequence (Q16552 24-155): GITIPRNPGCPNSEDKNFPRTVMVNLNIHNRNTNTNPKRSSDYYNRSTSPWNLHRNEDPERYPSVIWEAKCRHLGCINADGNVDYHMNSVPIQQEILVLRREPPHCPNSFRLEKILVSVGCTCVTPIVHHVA
Test: IL-17A AlphaLISA assay (block binding of IL-17A to its receptor IL-17RA)
Conditions: for IC50: read-out: AlphaLISA pIC50 (converted)
Outline: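 PBS with 0.05% Tween-20 and 0.1% BSA. IL-17A stock 7.5 nM, IL-17RA/Fc stock 5 nM; compound–cytokine pre-incubation 24 h at RT, or 30 min where marked, then 90 min with receptor. pIC50 from 4-parameter logistic AlphaLISA signal, normalised to DMSO and 6 μM reference inhibitor.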

[1] = compounds pre-incubated with the IL-17A for 30 min (indicated by * in Table A)
[2] = compounds pre-incubated with the IL-17A for 24 h at room temperature

Row | IC50 [1] [nM] | IC50 [2] [nM] | Structure (SMILES) | further results
1 | 158 | – | CCc1nocc1C(=O)N[C@H](C(=O)Nc1cnc(-c2c(C)cnn2C)c(F)c1)[C@H]1CC[C@H](C)CC1 [Example 180, N—((S)-2-((6-(1,4-dimethyl-1H-pyrazol-5-yl)-5-fluoropyridin-3-yl)amino)-1-((1r,4S)-4-methylcyclohexyl)-2-oxoethyl)-3-ethylisoxazole-4-carboxamide] | –
2 | 200 | – | Cc1nnn(C2CC2)c1-c1ccc(NC(=O)[C@@H](NC(=O)c2ccnn2C)C2CCCCCC2)nc1 [Example 161, (S)—N-(1-cycloheptyl-2-((5-(1-cyclopropyl-4-methyl-1H-1,2,3-triazol-5-yl)pyridin-2-yl)amino)-2-oxoethyl)-1-methyl-1H-pyrazole-5-carboxamide] | –
3 | – | 251 | Cn1nccc1C(=O)N[C@H](C(=O)Nc1ccc(-c2cc[n+]([O-])cc2CC(=O)N2CCCC2)cc1)C(c1ccccc1)c1ccccc1 [Example 79, (S)-4-(4-(2-(1-methyl-1H-pyrazole-5-carboxamido)-3,3-diphenylpropanamido)phenyl)-3-(2-oxo-2-(pyrrolidin-1-yl)ethyl)pyridine 1-oxide] | –
4 | 794 | – | Cc1nnn(CC(=O)N(C)C)c1-c1ccc(NC(=O)[C@@H](NC(=O)c2ccnn2C)C2CCCCCC2)nc1 [Example 190, (S)—N-(1-cycloheptyl-2-((5-(1-(2-(dimethylamino)-2-oxoethyl)-4-methyl-1H-1,2,3-triazol-5-yl)pyridin-2-yl)amino)-2-oxoethyl)-1-methyl-1H-pyrazole-5-carboxamide] | –
5 | – | – | Cc1nnn(C)c1-c1ccc(NC(=O)[C@@H](NC(=O)c2ccnn2C)[C@H]2CC[C@H](C)CC2)nc1 [Example 125, N—((S)-2-((5-(1,4-Dimethyl-1H-1,2,3-triazol-5-yl)pyridin-2-yl)amino)-1-((1r,4S)-4-methylcyclohexyl)-2-oxoethyl)-1-methyl-1H-pyrazole-5-carboxamide] | AlphaLISA pIC50 [1]: 6.8*
6 | 158 | – | Cn1nccc1C(=O)N[C@H](C(=O)Nc1ccc(-c2c(C3CC3)nnn2C)cn1)C1CCCCCC1 [Example 173, (S)—N-(1-cycloheptyl-2-((5-(4-cyclopropyl-1-methyl-1H-1,2,3-triazol-5-yl)pyridin-2-yl)amino)-2-oxoethyl)-1-methyl-1H-pyrazole-5-carboxamide] | –
7 | – | 50.1 | Cc1noc(C)c1-c1ccc(NC(=O)[C@@H](NC(=O)c2ccnn2C)[C@H]2CC[C@H](C)CC2)cc1 [Example 96, N—((S)-2-((4-(3,5-Dimethylisoxazol-4-yl)phenyl)amino)-1-((1r,4S)-4-methylcyclohexyl)-2-oxoethyl)-1-methyl-1H-pyrazole-5-carboxamide] | –
8 | 79.4 | – | Cc1n[nH]c(C)c1-c1ccc(NC(=O)C(NC(=O)c2ccnn2C)C2CCCCCCC2)cc1 (stereo not drawn) [Example 104, N-(1-Cyclooctyl-2-((4-(3,5-dimethyl-1H-pyrazol-4-yl)phenyl)amino)-2-oxoethyl)-1-methyl-1H-pyrazole-5-carboxamide] | –
9 | 158 | – | Cn1nccc1C(=O)N[C@H](C(=O)Nc1ccc(-c2c(Cl)cnn2C)cn1)C1CCCCCC1 [Example 174, (S)—N-(2-((5-(4-chloro-1-methyl-1H-pyrazol-5-yl)pyridin-2-yl)amino)-1-cycloheptyl-2-oxoethyl)-1-methyl-1H-pyrazole-5-carboxamide] | –
10 | 501 | – | Cc1n[nH]c(C)c1-c1ccc(NC(=O)[C@@H](NC(=O)c2ccnn2C)C2CCCCC2)cn1 [Example 207, (S)—N-(1-cyclohexyl-2-((6-(3,5-dimethyl-1H-pyrazol-4-yl)pyridin-3-yl)amino)-2-oxoethyl)-1-methyl-1H-pyrazole-5-carboxamide] | –
11 | 200 | – | Cc1noc(C)c1-c1ccc(NC(=O)[C@@H](NC(=O)c2ccnn2C)C2CCCCCC2)cn1 [Example 172, (S)—N-(1-cycloheptyl-2-((6-(3,5-dimethylisoxazol-4-yl)pyridin-3-yl)amino)-2-oxoethyl)-1-methyl-1H-pyrazole-5-carboxamide] | –
12 | – | 15.8 | Cn1nccc1C(=O)N[C@H](C(=O)Nc1ccc(-c2cccc(=O)n2C)c(F)c1)C(c1ccccc1)c1ccccc1 [Example 71, (S)—N-(1-((3-fluoro-4-(1-methyl-6-oxo-1,6-dihydropyridin-2-yl)phenyl)amino)-1-oxo-3,3-diphenylpropan-2-yl)-1-methyl-1H-pyrazole-5-carboxamide] | –
13 | 501 | – | Cc1c(-c2ccc(NC(=O)[C@@H](NC(=O)c3ccnn3C)C3CCCCC3)cc2)ccc(=O)n1C [Example 119, (S)—N-(1-Cyclohexyl-2-((4-(1,2-dimethyl-6-oxo-1,6-dihydropyridin-3-yl)phenyl)amino)-2-oxoethyl)-1-methyl-1H-pyrazole-5-carboxamide] | –
14 | 126 | – | Cc1noc(C)c1-c1ccc(NC(=O)[C@@H](NC(=O)c2ccnn2C(C)C)[C@H]2CC[C@H](C)CC2)cn1 [Example 206, N—((S)-2-((6-(3,5-dimethylisoxazol-4-yl)pyridin-3-yl)amino)-1-((1r,4S)-4-methylcyclohexyl)-2-oxoethyl)-1-isopropyl-1H-pyrazole-5-carboxamide] | –
15 | 63.1 | – | CCc1nocc1C(=O)N[C@H](C(=O)Nc1ncc(-c2c(C)noc2C)cc1F)C1CCCCCC1 [Example 164, (S)—N-(1-cycloheptyl-2-((5-(3,5-dimethylisoxazol-4-yl)-3-fluoropyridin-2-yl)amino)-2-oxoethyl)-3-ethylisoxazole-4-carboxamide] | –
16 | – | – | CCn1nccc1C(=O)N[C@H](C(=O)Nc1cnc(-c2c(C)cnn2C)c(F)c1)[C@H]1CC[C@H](C)CC1 [Example 189, N—((S)-2-((6-(1,4-dimethyl-1H-pyrazol-5-yl)-5-fluoropyridin-3-yl)amino)-1-((1r,4S)-4-methylcyclohexyl)-2-oxoethyl)-1-ethyl-1H-pyrazole-5-carboxamide] | AlphaLISA pIC50 [1]: 6.8*
17 | – | 158 | Cn1nccc1C(=O)N[C@H](C(=O)Nc1ccc(-c2cnc(=O)n(C)c2)c(F)c1)C(c1ccccc1)c1ccccc1 [Example 63, (S)—N-(1-((3-fluoro-4-(1-methyl-2-oxo-1,2-dihydropyrimidin-5-yl)phenyl)amino)-1-oxo-3,3-diphenylpropan-2-yl)-1-methyl-1H-pyrazole-5-carboxamide] | –
18 | – | 79.4 | Cc1noc(C)c1-c1ccc(NC(=O)[C@@H](NC(=O)c2ccnn2C)[C@H]2CC[C@H](C)CC2)nc1 [Example 97, N—((S)-2-((5-(3,5-Dimethylisoxazol-4-yl)pyridin-2-yl)amino)-1-((1r,4S)-4-methylcyclohexyl)-2-oxoethyl)-1-methyl-1H-pyrazole-5-carboxamide] | –
19 | 31.6 | – | CCc1nocc1C(=O)N[C@H](C(=O)Nc1ccc(-c2c(Cl)cnn2C)cn1)C1CCCCCC1 [Example 175, (S)—N-(2-((5-(4-chloro-1-methyl-1H-pyrazol-5-yl)pyridin-2-yl)amino)-1-cycloheptyl-2-oxoethyl)-3-ethylisoxazole-4-carboxamide] | –
20 | 794 | – | Cc1nccc(-c2ccc(NC(=O)[C@@H](NC(=O)c3ccnn3C)[C@H]3CC[C@H](C)CC3)nc2)c1C [Example 152, N—((S)-2-((2′,3′-dimethyl-[3,4′-bipyridin]-6-yl)amino)-1-((1r,4S)-4-methylcyclohexyl)-2-oxoethyl)-1-methyl-1H-pyrazole-5-carboxamide] | –
21 | 100 | – | CCn1nccc1C(=O)N[C@H](C(=O)Nc1ccc(-c2c(Cl)cnn2C)cn1)[C@H]1CC[C@H](C)CC1 [Example 199, N—((S)-2-((5-(4-chloro-1-methyl-1H-pyrazol-5-yl)pyridin-2-yl)amino)-1-((1r,4S)-4-methylcyclohexyl)-2-oxoethyl)-1-ethyl-1H-pyrazole-5-carboxamide] | –
22 | 200 | – | Cc1nocc1C(=O)N[C@H](C(=O)Nc1ccc(-c2c(C)nnn2C)cn1)[C@H]1CC[C@H](C)CC1 [Example 160, N—((S)-2-((5-(1,4-dimethyl-1H-1,2,3-triazol-5-yl)pyridin-2-yl)amino)-1-((1r,4S)-4-methylcyclohexyl)-2-oxoethyl)-3-methylisoxazole-4-carboxamide] | –
23 | – | 316 | Cn1nccc1C(=O)N[C@H](C(=O)Nc1ccc(-c2ccc(=O)[nH]n2)c(F)c1)C(c1ccccc1)c1ccccc1 [Example 58, (S)—N-(1-((3-fluoro-4-(6-oxo-1,6-dihydropyridazin-3-yl)phenyl)amino)-1-oxo-3,3-diphenylpropan-2-yl)-1-methyl-1H-pyrazole-5-carboxamide] | –
24 | – | 25.1 | COc1cnccc1-c1ccc(NC(=O)C(NC(=O)c2ccnn2C)C2c3ccccc3-c3ccccc32)cc1 (stereo not drawn) [Example 82, N-(1-(9H-fluoren-9-yl)-2-((4-(3-methoxypyridin-4-yl)phenyl)amino)-2-oxoethyl)-1-methyl-1H-pyrazole-5-carboxamide] | –
25 | 158 | – | CCc1nocc1C(=O)N[C@H](C(=O)Nc1ccc(-c2c(CO)cnn2C)cn1)C1CCCCCC1 [Example 202, (S)—N-(1-cycloheptyl-2-((5-(4-(hydroxymethyl)-1-methyl-1H-pyrazol-5-yl)pyridin-2-yl)amino)-2-oxoethyl)-3-ethylisoxazole-4-carboxamide] | –
26 | – | 126 | Cn1nccc1C(=O)N[C@H](C(=O)Nc1ccc(-c2cccc(=O)[nH]2)c(F)c1)C(c1ccccc1)c1ccccc1 [Example 77, (S)—N-(1-((3-fluoro-4-(6-oxo-1,6-dihydropyridin-2-yl)phenyl)amino)-1-oxo-3,3-diphenylpropan-2-yl)-1-methyl-1H-pyrazole-5-carboxamide] | –
27 | – | 15.8 | CN(C)c1cnccc1-c1ccc(NC(=O)[C@@H](NC(=O)c2ccnn2C)C(c2ccccc2)c2ccccc2)cc1 [Example 8, (S)—N-(1-((4-(3-(dimethylamino)pyridin-4-yl)phenyl)amino)-1-oxo-3,3-diphenylpropan-2-yl)-1-methyl-1H-pyrazole-5-carboxamide] | –
